Experimental data taken from ChEMBL document CHEMBL1201862, “PubChem BioAssay data set” (2004).
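The compound was tested at five concentrations on cells cultured in 96-well plates, with a 48-hour exposure period. GI50 = concentration required for 50% inhibition of growth.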 The source made the active and inactive calls. Cut-off read from the data, not from the text of the source: active = GI50 up to about 1.1 µM and inactive = higher.

Legend:
Assay in all cases: NCI-60 cell line screen, 48 h
SK-MEL-5 = system: SK-MEL-5
UACC-257 = system: UACC-257
IGROV-1 = system: IGROV-1
SK-MEL-28 = system: SK-MEL-28
NCI-H460 = system: NCI-H460
HOP-62 = system: HOP-62
OVCAR-5 = system: OVCAR-5
T47D = system: T47D
786-0 = system: 786-0
SN12C = system: SN12C
HCT-15 = system: HCT-15
SNB-75 = system: SNB-75
NCI-H23 = system: NCI-H23
KM12 = system: KM12
MDA-N = system: MDA-N
COLO 205 = system: COLO 205
LOX IMVI = system: LOX IMVI
SR = system: SR
Malme-3M = system: Malme-3M
BT-549 = system: BT-549

Structure (SMILES) | GI50 (SK-MEL-5) | GI50 (UACC-257) | GI50 (IGROV-1) | GI50 (SK-MEL-28) | GI50 (NCI-H460) | GI50 (HOP-62) | GI50 (OVCAR-5) | GI50 (T47D) | GI50 (786-0) | GI50 (SN12C) | GI50 (HCT-15) [µM] | GI50 (SNB-75) | GI50 (NCI-H23) | GI50 (KM12) | GI50 (MDA-N) | GI50 (COLO 205) | GI50 (LOX IMVI) | GI50 (SR) | GI50 (Malme-3M) | GI50 (BT-549)
COC(=O)C1Cc2c([nH]c3ccccc23)-c2[nH]c3ccccc3c2CC(NC(C)=O)C(=O)NCC(=O)N1 (stereo unspecified) | > 100 µM (inactive) | > 100 µM (inactive) | 0.914 µM (active) | > 100 µM (inactive) | > 100 µM (inactive) | > 100 µM (inactive) | > 100 µM (inactive) | > 100 µM (inactive) | > 100 µM (inactive) | > 100 µM (inactive) | > 100 | > 100 µM (inactive) | > 100 µM (inactive) | > 100 µM (inactive) | > 100 µM (inactive) | > 100 µM (inactive) | > 100 µM (inactive) | – | – | –
CCOc1ccc(NCC2CC/C(=C\c3ccc(Cl)cc3)C2=O)cc1 (stereo unspecified) | 23 µM (inactive) | > 38.9 µM (inactive) | > 36 µM (inactive) | 50.2 µM (inactive) | 89.3 µM (inactive) | > 100 µM (inactive) | > 100 µM (inactive) | – | 13 µM (inactive) | > 42.8 µM (inactive) | 7.73 | > 44.5 µM (inactive) | > 48.9 µM (inactive) | 14.2 µM (inactive) | – | > 37.9 µM (inactive) | 19.4 µM (inactive) | 12.1 µM (inactive) | 34.5 µM (inactive) | –
O=[N+]([O-])c1ccc(-c2nc(/C=N/N3CCCCC3)cs2)o1 | 18 µM (inactive) | 19.3 µM (inactive) | 50.8 µM (inactive) | 31.6 µM (inactive) | 49.2 µM (inactive) | 53 µM (inactive) | > 100 µM (inactive) | 90.2 µM (inactive) | > 100 µM (inactive) | 16.2 µM (inactive) | 32.6 | > 100 µM (inactive) | 29.2 µM (inactive) | 33.9 µM (inactive) | – | 30.2 µM (inactive) | – | 30.9 µM (inactive) | 22.8 µM (inactive) | 92.5 µM (inactive)
COc1ccc(CCN(C)C2CCC(C#N)(c3ccc(OC)c(OC)c3)CC2)cc1OC (stereo unspecified) | 56.9 µM (inactive) | > 100 µM (inactive) | > 100 µM (inactive) | 83.8 µM (inactive) | > 100 µM (inactive) | > 100 µM (inactive) | > 100 µM (inactive) | – | > 100 µM (inactive) | > 100 µM (inactive) | > 100 | > 100 µM (inactive) | > 100 µM (inactive) | > 100 µM (inactive) | – | 26.7 µM (inactive) | > 100 µM (inactive) | > 100 µM (inactive) | > 100 µM (inactive) | –
O=C1NC(=S)NC1C(Cc1ccccc1)c1ccco1 (stereo unspecified) | > 100 µM (inactive) | > 100 µM (inactive) | > 100 µM (inactive) | > 100 µM (inactive) | > 100 µM (inactive) | – | > 100 µM (inactive) | > 100 µM (inactive) | > 100 µM (inactive) | > 100 µM (inactive) | > 100 | > 100 µM (inactive) | > 100 µM (inactive) | > 100 µM (inactive) | > 100 µM (inactive) | > 100 µM (inactive) | > 100 µM (inactive) | 75.3 µM (inactive) | > 100 µM (inactive) | –
CCCCCCSCC/C(C)=N\OC | > 100 µM (inactive) | > 100 µM (inactive) | > 100 µM (inactive) | > 100 µM (inactive) | > 100 µM (inactive) | > 100 µM (inactive) | > 100 µM (inactive) | – | > 100 µM (inactive) | > 100 µM (inactive) | > 100 | > 100 µM (inactive) | > 100 µM (inactive) | > 100 µM (inactive) | > 100 µM (inactive) | > 100 µM (inactive) | > 100 µM (inactive) | – | > 100 µM (inactive) | > 100 µM (inactive)
CC(=O)NC1C(OC2C(CO)OC(OCC3OC(n4ccc(N)nc4=O)C(O)C3O)C(NC(C)=O)C2O)OC(CO)C(O)C1O (stereo unspecified) | > 100 µM (inactive) | > 100 µM (inactive) | > 100 µM (inactive) | > 100 µM (inactive) | > 89.3 µM (inactive) | > 100 µM (inactive) | > 100 µM (inactive) | > 100 µM (inactive) | > 100 µM (inactive) | > 100 µM (inactive) | > 100 | > 100 µM (inactive) | 97.9 µM (inactive) | > 100 µM (inactive) | – | > 100 µM (inactive) | > 100 µM (inactive) | > 100 µM (inactive) | 5.97 µM (inactive) | > 100 µM (inactive)
CCCNC(=O)c1cc(NC(=O)c2cc(NC(=O)/C=C/c3ccccc3)c(OC)c(OC)c2)c(OC)c(OC)c1 | – | 14.2 µM (inactive) | 12.4 µM (inactive) | 14.5 µM (inactive) | 11.8 µM (inactive) | 4.41 µM (inactive) | 12.7 µM (inactive) | – | 3.61 µM (inactive) | 0.248 µM (active) | 92.3 | 2.49 µM (inactive) | 11.4 µM (inactive) | 8.28 µM (inactive) | 13.8 µM (inactive) | > 100 µM (inactive) | 2.96 µM (inactive) | 48.9 µM (inactive) | 3.08 µM (inactive) | 17.8 µM (inactive)
Nc1ccc(CCN2CCN(c3cccc(C(F)(F)F)c3)CC2)cc1 | 55.2 µM (inactive) | 47 µM (inactive) | > 100 µM (inactive) | > 100 µM (inactive) | > 100 µM (inactive) | > 100 µM (inactive) | > 100 µM (inactive) | – | 84.3 µM (inactive) | > 100 µM (inactive) | > 100 | > 100 µM (inactive) | > 100 µM (inactive) | > 100 µM (inactive) | – | > 100 µM (inactive) | > 100 µM (inactive) | 58.5 µM (inactive) | > 100 µM (inactive) | –
O=C(O)C1CC2CC(=O)C1C2 (stereo unspecified) | > 100 µM (inactive) | > 100 µM (inactive) | > 100 µM (inactive) | > 100 µM (inactive) | > 100 µM (inactive) | > 100 µM (inactive) | > 100 µM (inactive) | – | > 100 µM (inactive) | > 100 µM (inactive) | – | > 100 µM (inactive) | > 100 µM (inactive) | > 100 µM (inactive) | – | > 100 µM (inactive) | > 100 µM (inactive) | > 100 µM (inactive) | > 100 µM (inactive) | –
Cc1oc2nc(N(C)C)n3nnnc3c2c1C | > 100 µM (inactive) | > 100 µM (inactive) | > 100 µM (inactive) | > 100 µM (inactive) | – | – | > 100 µM (inactive) | > 100 µM (inactive) | 70.1 µM (inactive) | > 100 µM (inactive) | > 100 | 67.5 µM (inactive) | > 100 µM (inactive) | > 100 µM (inactive) | – | > 100 µM (inactive) | > 100 µM (inactive) | > 10 µM (inactive) | – | 74.1 µM (inactive)
C1=CC2SSSC2C1 (stereo unspecified) | > 100 µM (inactive) | > 100 µM (inactive) | > 100 µM (inactive) | > 100 µM (inactive) | > 100 µM (inactive) | > 100 µM (inactive) | > 100 µM (inactive) | – | > 100 µM (inactive) | > 100 µM (inactive) | > 100 | > 100 µM (inactive) | > 100 µM (inactive) | > 100 µM (inactive) | – | > 100 µM (inactive) | > 100 µM (inactive) | > 100 µM (inactive) | > 100 µM (inactive) | –
CC(=O)Oc1c(-c2ccccc2)sc2ccccc12 | 18.5 µM (inactive) | 12.5 µM (inactive) | 15.3 µM (inactive) | 21.3 µM (inactive) | 14.5 µM (inactive) | 22.3 µM (inactive) | 29.2 µM (inactive) | 10.7 µM (inactive) | 15.6 µM (inactive) | – | 16.6 | 15.8 µM (inactive) | 15.1 µM (inactive) | 18.4 µM (inactive) | – | 15.6 µM (inactive) | 13.5 µM (inactive) | 10.1 µM (inactive) | 18.2 µM (inactive) | 21.4 µM (inactive)
COc1ccc(NC(=O)C2=CC(=O)c3ccc(O)cc3C2=O)c(OC)c1 | > 100 µM (inactive) | > 100 µM (inactive) | > 100 µM (inactive) | > 100 µM (inactive) | > 100 µM (inactive) | > 100 µM (inactive) | > 100 µM (inactive) | – | > 100 µM (inactive) | > 100 µM (inactive) | > 100 | > 100 µM (inactive) | > 100 µM (inactive) | > 100 µM (inactive) | – | > 100 µM (inactive) | > 100 µM (inactive) | > 100 µM (inactive) | > 100 µM (inactive) | –
CSC1=N/C(=C\c2ccccc2)C(=O)N1CN1CCOCC1 | 50.5 µM (inactive) | – | 52.7 µM (inactive) | > 100 µM (inactive) | – | > 100 µM (inactive) | > 100 µM (inactive) | – | 41.1 µM (inactive) | > 100 µM (inactive) | 33.3 | 69.2 µM (inactive) | > 100 µM (inactive) | 93.5 µM (inactive) | > 100 µM (inactive) | 54.5 µM (inactive) | 31.6 µM (inactive) | 43.6 µM (inactive) | 57.3 µM (inactive) | –
Cc1cc(=O)oc2cc3c(cc12)Oc1ccccc1O3 | > 100 µM (inactive) | > 100 µM (inactive) | > 100 µM (inactive) | > 100 µM (inactive) | 51.9 µM (inactive) | > 100 µM (inactive) | > 100 µM (inactive) | – | > 100 µM (inactive) | > 100 µM (inactive) | > 100 | 21.1 µM (inactive) | 89.3 µM (inactive) | > 100 µM (inactive) | – | > 100 µM (inactive) | 54.6 µM (inactive) | > 100 µM (inactive) | > 100 µM (inactive) | –
